Results on 3 compounds are retold here after ChEMBL document CHEMBL1144128, “A new bisabolene epoxide from Tussilago farfara, and inhibition of nitric oxide synthesis in LPS-activated macrophages” (J Nat Prod, 1999).

Test [1] relates to RAW264.7. Nature of the test: Inhibition of LPS-induced nitric oxide synthesis in mouse RAW264.7 macrophages at 30 uM pretreated 18 hrs before arginine challenge assessed after 18 hrs by ELISA relative to LPS-treated control. The test is classed as functional. In general terms: In an ELISA, binding on a coated surface is turned into a signal by an enzyme label.
Test [2] has as its system RAW264.7. In words: Inhibition of LPS-induced nitric oxide synthesis in mouse RAW264.7 macrophages at 30 uM after 18 hrs of LPS challenge measured after 18 hrs by ELISA relative to LPS-treated control. It counts as functional. The note with it: RAW264.7, 18 h.
In test [3] the test system is RAW264.7. In words: Inhibition of LPS-induced nitric oxide synthesis in mouse RAW264.7 macrophages at 30 uM after 18 hrs by ELISA relative to LPS-treated control. The test is classed as functional. The note with it: RAW264.7, 18 h.
Test [4] deals with RAW264.7. Nature of the test: Inhibition of LPS-induced nitric oxide synthesis in mouse RAW264.7 macrophages after 18 hrs by ELISA. The test is classed as functional, cell-based.
Test [5] has as its system RAW264.7. In words: Inhibition of LPS-induced nitric oxide synthesis in mouse RAW264.7 macrophages at 0.1 uM pretreated 18 hrs before arginine challenge assessed after 18 hrs by ELISA relative to LPS-treated control. It counts as functional.
Test [6] has as its system RAW264.7. In words: Inhibition of LPS-induced nitric oxide synthesis in mouse RAW264.7 macrophages at 0.1 uM after 18 hrs by ELISA relative to LPS-treated control. It counts as functional. The note with it: RAW264.7, 18 h.
The subject of test [7] is RAW264.7. In words: Inhibition of LPS-induced nitric oxide synthesis in mouse RAW264.7 macrophages at 0.1 uM after 18 hrs of LPS challenge measured after 18 hrs by ELISA relative to LPS-treated control. The test is classed as functional. To be noted: RAW264.7, 18 h.
The test system of test [8] is RAW264.7. In words: Inhibition of LPS-induced nitric oxide synthesis in mouse RAW264.7 macrophages after 18 hrs of LPS challenge measured after 18 hrs by ELISA relative to LPS-treated control. It counts as functional.

For the compound `C=C(C(CC=C(C)C)OC(=O)/C(C)=C\C)C1[C@H](OC(C)=O)C(=O)[C@@]2(C)O[C@H]2[C@@H]1OC(C)=O` (some centres undefined), the inhibition (usually the percentage by which the read-out fell short of the control) at 30 µM in test [1] was determined as 68.9%; in test [2], 11.1%; in test [3] it was 71.1%. The Activity entry in test [4] is “Dose-dependent effect”. In addition, it took 8.9 µM to reach half-maximal inhibition in test [4] (RAW264.7, 18 h) (IC50).

Consider `CNC(=N)NCCC[C@H](N)C(=O)O` [TILARGININE], for which the inhibition at 0.1 µM worked out at 25.8% in test [5], 60.5% in test [6] and 53.3% in test [7].

On to `N=C(N)NN` [PIMAGEDINE], for which, in test [8], the “inhibition (INH)” value is 78.8%.
